Source: PubChem BioAssay AID330 (DTP/NCI, 2004)
Values joined by “and” are separate entries in the source; they are usually repeats but may differ in a detail not shown here. Equal entries are not always repeated. Toxic doses and inconclusive results are not listed.

Tested on: P388 leukemia ip, CD2F1 mice, survival T/C
Assay: NCI In Vivo Anticancer Drug Screen. Data for tumor model P388 Leukemia (intraperitoneal) in CD2F1 (CDF1) mice
Conditions: endpoint: median survival time, higher = longer survival
In short: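 Mice carrying the transplanted tumor received test compound or vehicle. Survival was recorded in each group, and the value is the treated-group measurement divided by that of the vehicle-treated control group.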

[1] = dose: 25.0 mg/kg/injection, schedule: Q01DX009 (ip), vehicle: saline
[2] = dose: 50.0 mg/kg/injection, schedule: Q01DX009 (ip), vehicle: saline
[3] = dose: 100.0 mg/kg/injection, schedule: Q01DX009 (ip), vehicle: saline
[4] = dose: 200.0 mg/kg/injection, schedule: Q01DX009 (ip), vehicle: saline
[5] = dose: 25.0 mg/kg/injection, schedule: Q01DX009 (ip), vehicle: saline with Tween-80
[6] = dose: 50.0 mg/kg/injection, schedule: Q01DX009 (ip), vehicle: saline with Tween-80
[7] = dose: 50.0 mg/kg/injection, schedule: Q01DX005 (ip), vehicle: Klucel (hydroxypropylcellulose) (HPC)
[8] = dose: 100.0 mg/kg/injection, schedule: Q01DX005 (ip), vehicle: Klucel (hydroxypropylcellulose) (HPC)
[9] = dose: 200.0 mg/kg/injection, schedule: Q01DX005 (ip), vehicle: Klucel (hydroxypropylcellulose) (HPC)
[10] = dose: 100.0 mg/kg/injection, schedule: Q04DX003 (ip), vehicle: saline with Tween-80
[11] = dose: 200.0 mg/kg/injection, schedule: Q04DX003 (ip), vehicle: saline with Tween-80
[12] = dose: 100.0 mg/kg/injection, schedule: Q01DX001 (ip), vehicle: saline
[13] = dose: 200.0 mg/kg/injection, schedule: Q01DX001 (ip), vehicle: saline
[14] = dose: 400.0 mg/kg/injection, schedule: Q01DX001 (ip), vehicle: saline
[15] = dose: 50.0 mg/kg/injection, schedule: Q01DX005 (ip), vehicle: saline with Tween-80
[16] = dose: 100.0 mg/kg/injection, schedule: Q01DX005 (ip), vehicle: saline with Tween-80
[17] = dose: 200.0 mg/kg/injection, schedule: Q01DX005 (ip), vehicle: saline with Tween-80
[18] = dose: 60.0 mg/kg/injection, schedule: Q01DX005 (ip), vehicle: saline with Tween-80
[19] = dose: 120.0 mg/kg/injection, schedule: Q01DX005 (ip), vehicle: saline with Tween-80
[20] = dose: 240.0 mg/kg/injection, schedule: Q01DX005 (ip), vehicle: saline with Tween-80
[21] = dose: 50.0 mg/kg/injection, schedule: Q01DX009 (ip), vehicle: Klucel (hydroxypropylcellulose) (HPC)
[22] = dose: 100.0 mg/kg/injection, schedule: Q01DX009 (ip), vehicle: Klucel (hydroxypropylcellulose) (HPC)
[23] = dose: 200.0 mg/kg/injection, schedule: Q01DX009 (ip), vehicle: Klucel (hydroxypropylcellulose) (HPC)

SMILES: NCc1cc(O)c(O)c(O)c1
- T/C [1]: 100 % of control
- T/C [2]: 103 % of control and 120 % of control
- T/C [3]: 110 % of control and 118 % of control and 114 % of control
- T/C [4]: 116 % of control and 120 % of control and 122 % of control
- T/C (dose: 400.0 mg/kg/injection, schedule: Q01DX009 (ip), vehicle: saline): 121 % of control and 123 % of control and 124 % of control
- T/C (dose: 600.0 mg/kg/injection, schedule: Q01DX009 (ip), vehicle: saline): 155 % of control and 157 % of control and 150 % of control

SMILES: COC(=O)n1oc2c(Br)cc(Br)cc2c1=O
- T/C (dose: 100.0 mg/kg/injection, schedule: Q04DX002 (ip), vehicle: Klucel (hydroxypropylcellulose) (HPC)): 93 % of control
- T/C (dose: 200.0 mg/kg/injection, schedule: Q04DX002 (ip), vehicle: Klucel (hydroxypropylcellulose) (HPC)): 101 % of control
- T/C (dose: 400.0 mg/kg/injection, schedule: Q04DX002 (ip), vehicle: Klucel (hydroxypropylcellulose) (HPC)): 101 % of control

SMILES: CN(C)/N=N/c1ccn[nH]1
- T/C (dose: 3.12 mg/kg/injection, schedule: Q01DX005 (ip), vehicle: saline with Tween-80): 121 % of control
- T/C (dose: 3.12 mg/kg/injection, schedule: Q01DX009 (ip), vehicle: saline with Tween-80): 104 % of control
- T/C (dose: 3.13 mg/kg/injection, schedule: Q01DX009 (ip), vehicle: saline): 97 % of control
- T/C (dose: 6.25 mg/kg/injection, schedule: Q01DX005 (ip), vehicle: saline with Tween-80): 121 % of control
- T/C (dose: 6.25 mg/kg/injection, schedule: Q01DX009 (ip), vehicle: saline with Tween-80): 107 % of control
- T/C (dose: 6.25 mg/kg/injection, schedule: Q01DX009 (ip), vehicle: saline): 87 % of control
- T/C (dose: 12.5 mg/kg/injection, schedule: Q01DX005 (ip), vehicle: saline with Tween-80): 118 % of control
- T/C (dose: 12.5 mg/kg/injection, schedule: Q01DX009 (ip), vehicle: saline): 92 % of control
- T/C (dose: 25.0 mg/kg/injection, schedule: Q01DX005 (ip), vehicle: saline with Tween-80): 121 % of control
- T/C [5]: 121 % of control
- T/C [1]: 113 % of control
- T/C [6]: 122 % of control
- T/C [2]: 101 % of control

SMILES: CCCCCCC[N+]1([O-])CCOCC1
- T/C [2]: 99 % of control
- T/C [3]: 100 % of control
- T/C [4]: 97 % of control

SMILES: O=C(CF)c1ccc(Cl)cc1
- T/C [6]: 99 % of control
- T/C (dose: 100.0 mg/kg/injection, schedule: Q01DX009 (ip), vehicle: saline with Tween-80): 106 % of control
- T/C (dose: 200.0 mg/kg/injection, schedule: Q01DX009 (ip), vehicle: saline with Tween-80): 111 % of control

SMILES: O=C1CC(c2ccccc2)=NN1c1ccccc1
- T/C [7]: 101 % of control
- T/C [8]: 99 % of control
- T/C [9]: 95 % of control

SMILES: Cc1cc(C)c(O)c(N=Nc2ccccc2)c1
- T/C [10]: 105 % of control
- T/C [11]: 105 % of control
- T/C (dose: 400.0 mg/kg/injection, schedule: Q04DX003 (ip), vehicle: saline with Tween-80): 105 % of control

SMILES: COc1ccc(C2CCCC(CCc3ccc(O)cc3)O2)cc1 (stereo not drawn)
- T/C [7]: 100 % of control
- T/C [8]: 103 % of control
- T/C [9]: 100 % of control

SMILES: N#CCCCCC/C=C/CCCCCCC1C=CCC1 (stereo not drawn)
- T/C [12]: 100 % of control
- T/C [13]: 100 % of control
- T/C [14]: 96 % of control

SMILES: CC(O)CCc1nc2ccccc2[nH]1 (stereo not drawn)
- T/C [15]: 95 % of control
- T/C [16]: 100 % of control
- T/C [17]: 95 % of control

SMILES: Cc1ccc2c(C(=O)O)cccc2n1
- T/C (dose: 100.0 mg/kg/injection, schedule: Q04DX002 (ip), vehicle: saline with Tween-80): 97 % of control
- T/C (dose: 200.0 mg/kg/injection, schedule: Q04DX002 (ip), vehicle: saline with Tween-80): 98 % of control
- T/C (dose: 400.0 mg/kg/injection, schedule: Q04DX002 (ip), vehicle: saline with Tween-80): 95 % of control

SMILES: CC(=O)Nc1ccc(C(=O)N/N=C/c2ccc(O)cc2)cc1
- T/C (dose: 50.0 mg/kg/injection, schedule: Q01DX005 (ip), vehicle: saline): 99 % of control
- T/C (dose: 100.0 mg/kg/injection, schedule: Q01DX005 (ip), vehicle: saline): 102 % of control
- T/C (dose: 200.0 mg/kg/injection, schedule: Q01DX005 (ip), vehicle: saline): 100 % of control

SMILES: O=C1CCC(c2n[nH]c(=S)n2-c2ccccc2)N1 (stereo not drawn)
- T/C [18]: 100 % of control
- T/C [19]: 97 % of control
- T/C [20]: 94 % of control

SMILES: C=C(C)C(=O)OCCOc1ccc(/C=N/N=c2/sc3ccccc3n2C)cc1OC
- T/C [21]: 105 % of control
- T/C [22]: 97 % of control
- T/C [23]: 108 % of control

SMILES: O=C(O)CCCCCCCCCCCCCCC1C=CCC1 (stereo not drawn)
- T/C [12]: 101 % of control
- T/C [13]: 100 % of control
- T/C [14]: 98 % of control

SMILES: Cc1cccc(C2=NC(=C3CCCCC3)C(=O)O2)c1
- T/C [18]: 101 % of control
- T/C [19]: 100 % of control
- T/C [20]: 100 % of control

SMILES: CC12OC1C(=O)C=CC2=O (stereo not drawn)
- T/C (dose: 5.0 mg/kg/injection, schedule: Q04DX002 (ip), vehicle: saline with Tween-80): 111 % of control

SMILES: CC1(C)N=C(N)N=C(N)N1c1ccc(OCCOc2ccc(S(=O)(=O)F)cc2)c(Cl)c1
- T/C (dose: 12.5 mg/kg/injection, schedule: Q04DX003 (ip), vehicle: saline): 159 % of control
- T/C (dose: 25.0 mg/kg/injection, schedule: Q04DX003 (ip), vehicle: saline): 181 % of control and 185 % of control
- T/C (dose: 50.0 mg/kg/injection, schedule: Q04DX003 (ip), vehicle: saline): 181 % of control and 185 % of control
- T/C [10]: 175 % of control
- T/C (dose: 100.0 mg/kg/injection, schedule: Q04DX003 (ip), vehicle: saline): 190 % of control and 200 % of control
- T/C (dose: 132.0 mg/kg/injection, schedule: Q04DX003 (ip), vehicle: saline with Tween-80): 162 % of control
- T/C [11]: 185 % of control
- T/C (dose: 200.0 mg/kg/injection, schedule: Q04DX003 (ip), vehicle: saline): 109 % of control

SMILES: c1cc(NNc2cccc(-c3nn[nH]n3)c2)cc(-c2nn[nH]n2)c1
- T/C [21]: 95 % of control
- T/C [22]: 117 % of control
- T/C [23]: 113 % of control

SMILES: N#CCC(=O)N/N=C(/CC1(O)C(=O)Nc2c(Cl)cc(Cl)cc21)c1ccccc1 (stereo not drawn)
- T/C [15]: 102 % of control
- T/C [16]: 100 % of control
- T/C [17]: 104 % of control

SMILES: COC1=CP(C)(=S)CC1 (stereo not drawn)
- T/C (dose: 100.0 mg/kg/injection, schedule: Q04DX003 (ip), vehicle: Klucel (hydroxypropylcellulose) (HPC)): 112 % of control
- T/C (dose: 200.0 mg/kg/injection, schedule: Q04DX003 (ip), vehicle: Klucel (hydroxypropylcellulose) (HPC)): 98 % of control

SMILES: CC/C(=N/OC)C(=O)OC
- T/C [15]: 93 % of control
- T/C [16]: 99 % of control
- T/C [17]: 100 % of control

SMILES: CCC(C)B1N(c2ccccc2)N=NN1C(C)(C)C (stereo not drawn)
- T/C [18]: 97 % of control
- T/C [19]: 97 % of control
- T/C [20]: 105 % of control

SMILES: O=C1COc2ccccc2C(=O)C1
- T/C [2]: 109 % of control
- T/C [3]: 101 % of control
- T/C [4]: 101 % of control

SMILES: Nc1nn(-c2ccc(Br)cc2)c2cccc[n+]12
- T/C (dose: 12.5 mg/kg/injection, schedule: Q01DX009 (ip), vehicle: saline with Tween-80): 105 % of control
- T/C (dose: 25.0 mg/kg/injection, schedule: Q01DX009 (ip), vehicle: other): 115 % of control
- T/C [5]: 100 % of control
- T/C (dose: 50.0 mg/kg/injection, schedule: Q01DX009 (ip), vehicle: other): 97 % of control
- T/C [6]: 100 % of control and 97 % of control

SMILES: O=C1c2ccccc2C(=O)c2c3c(cc(NCCNCCO)c21)N(CCO)CCN3
- T/C (dose: 6.25 mg/kg/injection, schedule: Q01DX009 (ip), vehicle: DMSO): 104 % of control
- T/C (dose: 12.5 mg/kg/injection, schedule: Q01DX009 (ip), vehicle: DMSO): 123 % of control
- T/C (dose: 25.0 mg/kg/injection, schedule: Q01DX009 (ip), vehicle: DMSO): 155 % of control
- T/C (dose: 50.0 mg/kg/injection, schedule: Q01DX009 (ip), vehicle: DMSO): 163 % of control
- T/C (dose: 100.0 mg/kg/injection, schedule: Q01DX009 (ip), vehicle: DMSO): 101 % of control
- T/C (dose: 200.0 mg/kg/injection, schedule: Q01DX009 (ip), vehicle: DMSO): 93 % of control
